Laboratory results as given in paper PMC5569483, “Screening and evolution of a novel protist xylose isomerase from the termite Reticulitermes speratus for efficient xylose fermentation in Saccharomyces cerevisiae” (Biotechnology for Biofuels, 2017).

System: T1, RsXI-C1
T1 construct: full-length ORF, codon-optimized gene, expressed in S. cerevisiae W600W (strain WR311), crude cell extract
Assay: coupled sorbitol dehydrogenase assay, NADH oxidation at […] nm, Lineweaver-Burk
Assay type: biochemical, uncultured symbiotic protist of Reticulitermes speratus
Details: crude cell extract; 100 mM Tris-HCl pH 7.5, 10 mM MgSO4, 0.15 mM NADH, 30 °C, 5–250 mM D-xylose

`OC1OC[C@@H](O)[C@H](O)[C@H]1O` (stereo partly shown) [xylose] gave a Km of 10.5 ± 1.1 mM.
